Activity calls are given as the source filed them.
What was measured:
[1] = alpha-synuclein stem-loop luciferase translation blockers – H4 neuroglioma cells, luminescence, confirmation (AID 1988); format: functional, cell-based
[2] = alpha-synuclein stem-loop translation blockers – luminescence, H4 neuroglioblastoma cells, dose confirmation, confirmation (AID 2454); format: functional, cell-based;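 also: H4 neuroglioblastoma cells carrying an alpha-synuclein 5'UTR luciferase reporter; potency for inhibition of the luciferase signal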
A-375 [3] = experiment: MITF: Counter assay: A375 proliferation Measured in Cell-Based System Using Plate Reader - 2084-03_Inhibitor_Dose_DryPowder_Activity. [Related pubchem assays (depositor defined):AID488944]; format: functional; details: Homo sapiens
[4] = HEK-293T cell viability reduction – luminescence, B-cell screen hits, cytotoxicity control for BCR NF-kB inhibitor project, dose response (AID 489021); format: functional, cell-based;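 also: HEK-293T cells carrying an NF-kB luciferase reporter; cells exposed to compound for about 14 hours before viability readout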
[5] = molecular target: T1, Microphthalmia-associated transcription factor (Homo sapiens, UniProt O75030); experiment: reducers of TRPM1 reporter luminescence, concentration series – cell-based, SK-MEL-5, cherry-picked, set 3, MITF inhibitor project, dose response (AID 493073); format: functional;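 also: SK-MEL-5 melanoma cells with luciferase driven by the MITF target TRPM1 promoter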
T1 sequence (O75030 whole entry): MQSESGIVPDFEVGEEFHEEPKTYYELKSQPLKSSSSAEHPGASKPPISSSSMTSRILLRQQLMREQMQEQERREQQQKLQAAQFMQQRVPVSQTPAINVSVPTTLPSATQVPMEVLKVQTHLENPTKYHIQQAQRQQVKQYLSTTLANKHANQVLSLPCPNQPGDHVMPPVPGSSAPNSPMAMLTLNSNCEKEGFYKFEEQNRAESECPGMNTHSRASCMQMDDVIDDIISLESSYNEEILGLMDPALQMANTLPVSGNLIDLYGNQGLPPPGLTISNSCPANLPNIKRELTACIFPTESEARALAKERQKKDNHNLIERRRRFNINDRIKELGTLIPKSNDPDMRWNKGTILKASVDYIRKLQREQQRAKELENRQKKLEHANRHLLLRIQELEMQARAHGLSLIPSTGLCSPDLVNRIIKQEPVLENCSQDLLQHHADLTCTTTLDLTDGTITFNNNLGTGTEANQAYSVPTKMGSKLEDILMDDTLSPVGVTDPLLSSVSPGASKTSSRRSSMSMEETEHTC

cells = format: functional, cell-based
[6] = Luminescence Cell-Based Dose Response HTS to Identify Inhibitors of 5'UTR Stem-Loop Driven Prion Protein mRNA Translation in H4 Neuroglioblastoma Cells. [Related pubchem assays: 1827 (Project Summary), 1813 (Primary HTS)]; format: functional
A-375 [7] = experiment: proliferation inhibition in MITF-low A375 cells – cell-based, cherry-pick samples, set 2, counter-screen for MITF modulator project, dose response (AID 540335); format: functional; details: Homo sapiens
[8] = luciferase reporter signal suppression in cells – H4 neuroglioma cells, luminescence, dose response (AID 1990); format: functional, cell-based
[9] = luciferase reporter signal reduction – luminescence, H4-C neuroglioblastoma cells, dose response (AID 2458); format: functional, cell-based;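 also: H4 neuroglioblastoma cells stably carrying a luciferase reporter gene fusion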
[10] = molecular target: Eukaryotic translation initiation factor 4E (Mus musculus, UniProt P63073); experiment: blockers of eIF4G binding by eIF4E – biochemical, TR-FRET, dose response (AID 855); format: functional;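 also: potency for disrupting eIF4E binding to eIF4GI seen as loss of FRET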
Sequence of Eukaryotic translation initiation factor 4E (P63073 whole entry): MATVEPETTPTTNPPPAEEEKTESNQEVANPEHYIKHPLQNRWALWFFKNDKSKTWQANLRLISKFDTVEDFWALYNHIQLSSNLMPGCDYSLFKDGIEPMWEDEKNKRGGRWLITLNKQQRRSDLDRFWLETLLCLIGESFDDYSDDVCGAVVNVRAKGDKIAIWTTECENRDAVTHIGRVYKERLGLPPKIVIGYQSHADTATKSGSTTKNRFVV

[11] = molecular target: Melanin-concentrating hormone receptor 1 (Homo sapiens, UniProt Q99705); experiment: Fluorescence-based counterscreen for antagonists of the G-protein coupled receptor 7 (GPR7): cell-based high throughput dose response assay to identify antagonists of the melanin-concentrating hormone receptor 1 (MCHR1).; format: functional
Sequence of Melanin-concentrating hormone receptor 1 (Q99705 whole entry): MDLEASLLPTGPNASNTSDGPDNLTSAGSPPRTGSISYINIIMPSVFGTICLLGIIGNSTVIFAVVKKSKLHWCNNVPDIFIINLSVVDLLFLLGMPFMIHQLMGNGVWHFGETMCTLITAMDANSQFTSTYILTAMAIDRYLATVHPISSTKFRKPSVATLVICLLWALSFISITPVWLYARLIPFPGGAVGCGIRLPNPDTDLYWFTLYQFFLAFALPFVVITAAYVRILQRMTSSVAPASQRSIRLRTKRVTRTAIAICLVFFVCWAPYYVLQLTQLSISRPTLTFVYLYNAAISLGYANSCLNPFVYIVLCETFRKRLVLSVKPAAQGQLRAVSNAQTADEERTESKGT

[12] = molecular target: T2, Neuropeptides B/W receptor type 1 (Homo sapiens, UniProt P48145); experiment: Fluorescence-based dose response cell-based high throughput screening assay to identify antagonists of the G-protein coupled receptor 7 (GPR7). [Related pubchem assays: 1952 (Screening assay (GPR7 antagonists).), 1880 (Summary AID.)]; format: functional
T2 sequence (P48145 whole entry): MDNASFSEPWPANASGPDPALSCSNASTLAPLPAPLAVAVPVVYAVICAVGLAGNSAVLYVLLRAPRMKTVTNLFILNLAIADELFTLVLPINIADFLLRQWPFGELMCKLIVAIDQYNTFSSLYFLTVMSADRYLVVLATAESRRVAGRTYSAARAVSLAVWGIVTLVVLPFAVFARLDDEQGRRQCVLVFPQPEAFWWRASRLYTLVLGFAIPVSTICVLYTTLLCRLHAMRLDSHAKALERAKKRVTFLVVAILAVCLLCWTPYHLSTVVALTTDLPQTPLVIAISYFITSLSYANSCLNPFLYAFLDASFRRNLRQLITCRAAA

HEK293 [13] = experiment: cells; format: functional, cell-based; details: Homo sapiens
Vero [14] = experiment: cells; format: functional; details: Chlorocebus sabaeus
[15] = molecular target: Nucleotide-binding oligomerization domain-containing protein 2 (Homo sapiens, UniProt Q9HC29); experiment: inhibition of NOD2-driven NF-kB reporter – cell-based, luminescence, uHTS, HEK293 (AID 1566); format: functional
Sequence of Nucleotide-binding oligomerization domain-containing protein 2 (Q9HC29 whole entry, the tested form may be a part): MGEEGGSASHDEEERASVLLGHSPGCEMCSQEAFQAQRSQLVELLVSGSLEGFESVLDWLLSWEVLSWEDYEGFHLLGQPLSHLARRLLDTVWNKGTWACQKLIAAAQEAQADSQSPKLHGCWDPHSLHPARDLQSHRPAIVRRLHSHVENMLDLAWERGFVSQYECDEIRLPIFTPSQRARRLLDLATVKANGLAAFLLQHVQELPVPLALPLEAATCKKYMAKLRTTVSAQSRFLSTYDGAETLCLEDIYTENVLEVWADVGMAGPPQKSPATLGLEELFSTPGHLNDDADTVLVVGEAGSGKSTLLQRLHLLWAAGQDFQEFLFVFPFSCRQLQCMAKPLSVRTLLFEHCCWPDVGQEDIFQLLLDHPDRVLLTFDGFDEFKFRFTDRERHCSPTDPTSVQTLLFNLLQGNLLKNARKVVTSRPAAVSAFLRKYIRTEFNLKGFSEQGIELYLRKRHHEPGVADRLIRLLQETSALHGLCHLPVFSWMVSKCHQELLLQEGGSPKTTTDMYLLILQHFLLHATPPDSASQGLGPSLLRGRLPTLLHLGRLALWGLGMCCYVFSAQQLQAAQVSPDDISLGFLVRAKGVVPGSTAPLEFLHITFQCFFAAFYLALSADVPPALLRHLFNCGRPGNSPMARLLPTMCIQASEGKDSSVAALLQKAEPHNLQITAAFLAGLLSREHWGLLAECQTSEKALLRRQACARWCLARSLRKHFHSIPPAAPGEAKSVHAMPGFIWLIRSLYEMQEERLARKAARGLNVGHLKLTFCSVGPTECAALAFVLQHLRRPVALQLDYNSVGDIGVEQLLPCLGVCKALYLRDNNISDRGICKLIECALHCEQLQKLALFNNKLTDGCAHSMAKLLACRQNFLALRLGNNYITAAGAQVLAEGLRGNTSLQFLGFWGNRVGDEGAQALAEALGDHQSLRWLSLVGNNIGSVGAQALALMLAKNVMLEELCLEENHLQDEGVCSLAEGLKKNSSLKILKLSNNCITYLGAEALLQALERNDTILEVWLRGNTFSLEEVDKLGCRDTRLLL

HEK293 [16] = experiment: NOD2 signaling inhibitors in MDP-stimulated cells, cell-based, uHTS, luminescence (AID 2001); format: functional; details: Homo sapiens
HEK293 [17] = experiment: cells; format: functional, cell-based; details: Homo sapiens; remark: listed apart in the source
HEK293 [18] = experiment: cells; format: functional, cell-based; details: Homo sapiens; remark: listed apart in the source
HEK293 [19] = experiment: inhibition of NOD1-driven NF-kB reporter – cell-based, luminescence, uHTS, primary screen (AID 1578); format: functional; details: Homo sapiens
Vero [20] = experiment: cells; format: functional, cell-based; details: Chlorocebus sabaeus
CAAX prenyl protease 2 = molecular target: T3, CAAX prenyl protease 2 (Saccharomyces cerevisiae S288c, UniProt Q03530); format: biochemical
T3 sequence (Q03530 whole entry): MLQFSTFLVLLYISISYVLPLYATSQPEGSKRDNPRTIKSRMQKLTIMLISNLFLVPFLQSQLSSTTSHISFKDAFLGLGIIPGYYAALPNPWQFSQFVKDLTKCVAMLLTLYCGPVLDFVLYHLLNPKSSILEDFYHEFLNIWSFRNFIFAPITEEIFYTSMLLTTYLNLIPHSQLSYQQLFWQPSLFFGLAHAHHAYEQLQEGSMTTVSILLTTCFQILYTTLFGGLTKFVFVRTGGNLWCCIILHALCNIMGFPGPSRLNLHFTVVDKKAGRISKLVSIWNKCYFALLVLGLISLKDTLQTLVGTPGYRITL

[21] = HEK-293T viability loss after treatment – luminescence, T-cell screen hits, cytotoxicity control for TCR NF-kB inhibitor project, dose response (AID 489026); format: functional, cell-based;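 also: cells exposed to compound about 14 hours before the viability readout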
[22] = viability of HCT116 lacking mutant beta-catenin – cell-based, human colon tumor, dose response (AID 1045); format: functional;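 also: HCT116 colon tumor cells with beta catenin knocked out; cells exposed to compound for 60 hours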
[23] = viability of PTEN-deleted HCT116 cells – cell-based, HCT116 PTEN knockout, dose response (AID 1047); format: functional;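 also: HCT116 colon tumor cells with PTEN knocked out; cells exposed to compound for 60 hours before readout; potency for loss of cell viability measured by luminescence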
[24] = molecular target: T4, Eukaryotic translation initiation factor 2-alpha kinase 3 (Homo sapiens, UniProt Q9NZJ5); experiment: Counterscreen assay for PERK inhibitors: Dose response cell-based high throughput screening assay to measure inhibition of PERK at 6 hours. [Related pubchem assays: 1522, 1416 ]; format: functional
T4 sequence (Q9NZJ5 whole entry): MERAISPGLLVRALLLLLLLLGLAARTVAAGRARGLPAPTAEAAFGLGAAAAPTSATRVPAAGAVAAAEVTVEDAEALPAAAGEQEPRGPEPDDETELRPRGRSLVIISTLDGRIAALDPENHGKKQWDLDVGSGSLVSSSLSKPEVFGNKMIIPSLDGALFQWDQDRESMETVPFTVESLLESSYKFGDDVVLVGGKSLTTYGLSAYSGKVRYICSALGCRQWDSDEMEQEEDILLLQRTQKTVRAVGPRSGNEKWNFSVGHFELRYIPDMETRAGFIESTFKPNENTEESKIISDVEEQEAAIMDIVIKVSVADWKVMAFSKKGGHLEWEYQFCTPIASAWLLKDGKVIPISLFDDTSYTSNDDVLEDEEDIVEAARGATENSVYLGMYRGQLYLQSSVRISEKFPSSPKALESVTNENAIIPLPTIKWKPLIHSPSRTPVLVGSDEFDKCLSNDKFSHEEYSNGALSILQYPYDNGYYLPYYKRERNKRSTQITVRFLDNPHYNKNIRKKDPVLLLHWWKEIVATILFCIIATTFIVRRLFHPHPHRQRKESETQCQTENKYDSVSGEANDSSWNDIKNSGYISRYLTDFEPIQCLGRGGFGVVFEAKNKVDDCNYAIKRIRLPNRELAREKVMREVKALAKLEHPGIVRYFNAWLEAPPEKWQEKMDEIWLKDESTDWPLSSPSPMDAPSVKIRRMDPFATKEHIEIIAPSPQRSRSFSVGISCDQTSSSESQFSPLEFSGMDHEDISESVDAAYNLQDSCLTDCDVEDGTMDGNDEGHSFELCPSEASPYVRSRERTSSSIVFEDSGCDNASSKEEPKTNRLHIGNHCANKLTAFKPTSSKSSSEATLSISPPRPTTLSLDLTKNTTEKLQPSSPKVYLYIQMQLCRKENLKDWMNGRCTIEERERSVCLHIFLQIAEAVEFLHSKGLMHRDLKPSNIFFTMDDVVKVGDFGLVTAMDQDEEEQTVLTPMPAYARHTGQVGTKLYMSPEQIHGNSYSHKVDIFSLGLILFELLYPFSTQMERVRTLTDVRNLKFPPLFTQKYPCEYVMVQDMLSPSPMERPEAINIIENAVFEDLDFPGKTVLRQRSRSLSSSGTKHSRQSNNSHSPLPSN

[25] = molecular target: T4, Eukaryotic translation initiation factor 2-alpha kinase 3; experiment: Dose response cell-based high-throughput screening assay to measure PERK inhibition. [Related pubchem assays: 1416 ]; format: functional

CC(C)(C)c1ccc(-c2cc(N)[nH]n2)cc1
EC50 [1]: < 0.1 µM (active) | EC50 [2]: 0.677 µM (active) | AC50 (A-375 [3]): > 35 µM (active) | IC50 [4]: > 80 µM (inactive) | AC50 [5]: 0.511 µM (active) | EC50 (cells): 1.34 µM (active) | EC50 [6]: 7.28 µM (active) | AC50 (A-375 [7]): > 35 µM (active) | EC50 [8]: < 0.1 µM (active) | EC50 [9]: 0.403 µM (active)

O=C(NC1CCCCC1)C1CCN(c2cnccn2)CC1
IC50 [10]: > 64 µM (inactive)

Cc1ccc(-n2c(SCC(N)=O)nnc2-c2ccc(S(=O)(=O)N3CCCCC3)cc2)c(C)c1
IC50 [11]: 29.6 µM (not active) | IC50 [12]: 5.29 µM (active)

CC1CCCCC1NC(=O)/C(C#N)=C/C=C/c1ccccc1[N+](=O)[O-] (stereo not given)
IC50 (HEK293 [13]): > 20 µM (inactive) | CC50 (Vero [14]): 15.6 µM (active) | EC50 [15]: > 20 µM (inactive) | AC50 (A-375 [3]): 31.9 µM (active) | IC50 (HEK293 [16]): 4.85 µM (inactive) | IC50 (HEK293 [17]): 3.59 µM (active) | IC50 (HEK293 [18]): > 20 µM (inactive) | AC50 [5]: 7.92 µM (active) | EC50 (HEK293 [19]): > 20 µM (inactive) | IC50 (Vero [20]): 13.3 µM (active)

CC(C)c1ccc(/C=C2\SC(=S)N(CCC(=O)NCCCn3ccnc3)C2=O)cc1
IC50 [4]: > 80 µM (inactive) | AC50 (CAAX prenyl protease 2): > 100 µM (inactive)

CCn1c2ccccc2c2cc(Nc3cc(C)nc4ncnn34)ccc21
EC50 [1]: < 0.1 µM (active) | EC50 [2]: 0.354 µM (active) | IC50 [21]: 43.4 µM (inactive) | EC50 (cells): 0.255 µM (active) | EC50 [22]: < 0.059 µM (active) | EC50 [23]: < 0.059 µM (active) | EC50 [8]: < 0.1 µM (active) | EC50 [9]: 0.265 µM (active)

COc1ccc2c3c([nH]c2c1)C1CC2C(CC(O)C(OC)C2CO)CN1CC3 (stereo not given)
EC50 [24]: > 55.7 µM (not active) | EC50 [25]: > 55.7 µM (not active)

Source: ChEMBL document CHEMBL1201862, “PubChem BioAssay data set” (2004)
